According to patent US20090131539A1 (priority 2005, published 2009):

Test system: Varroa mites
Experiment: Test set-up 2004: honeybee colonies infested with Varroa mites, count of mites fallen down in the hive
Type: in vivo, Varroa destructor or Varroa jacobsoni
Experimental: For the test set-up 2004 two bee colonies (A and B) were chosen, which were not used for honey production because of the medium applied for subsequent evaluation of residues and also because colony B was a swarming colony. Each colony consisted of approx. 25,000 animals. Both colonies were housed each in two so-called ‘Herold’ or ‘Zeitler’ hives with 10 frames. Their infestation, colony size, brood and general state was examined and approved.
In the beginning only hive A was treated with the mixture, hive B remained untreated in order to gain reference data. Over a period of 3½ months seven treatments took place with a longer break period of more than 30 days between two treatment cycles. At the end, two treatments with Perizin® were carried out in order to check on remaining mite infestation.
Approx. […] The hive was opened and from the top the medium was finely distributed with the lance at 5 cm intervals into the spaces between the frames. First the lower than immediately the upper frame was treated.
Before the hive was covered again two minutes were allowed for aeration. The time needed for treatment of each hive was one to two minutes (without aeration).
In order to ascertain the amount of mites fallen down in the hive the floor boards of both hives (A and B) were lined entirely with two ‘diapers’ and covered with Vaseline coated paper. This was done in order to make sure that mites which might have been still alive were prevented from running away. This process was repeated after every mite count.
The colonies C to L represented reference colonies and served to ascertain the Varroa density at the location (those hives were only lined with diapers). As those were predominantly migrating colonies they were not available throughout the whole duration of the treatment, but they still represent the general situation.
Especially as many apiarists relocate their hives there is always infestation with Varroa in spite of preventive measures taken. When recording the mites found amounts of 50 animals were counted exactly.
The course of the test is outlined here in note form: […]

SMILES: O=CO [formic acid]
- count of mites fallen down in the hive (reference colony C, check-up 6 Sep. 2004, after formic acid (60%) evaporation of 30 Aug., amounts above 50 partially counted and extrapolated): 1.200
- count of mites fallen down in the hive (reference colony C, check-up 20 Sep. 2004, after second formic acid treatment of 6 Sep.): 160
- count of mites fallen down in the hive (reference colony D, check-up 6 Sep. 2004, after formic acid (60%) evaporation of 30 Aug., amounts above 50 partially counted and extrapolated): 600
- count of mites fallen down in the hive (reference colony D, check-up 20 Sep. 2004, after second formic acid treatment of 6 Sep.): 40
- count of mites fallen down in the hive (reference colony E, check-up 6 Sep. 2004, after formic acid (60%) evaporation of 30 Aug., amounts above 50 partially counted and extrapolated): 400
- count of mites fallen down in the hive (reference colony E, check-up 20 Sep. 2004, after second formic acid treatment of 6 Sep.): 50
- count of mites fallen down in the hive (reference colony F, check-up 6 Sep. 2004, after formic acid (60%) evaporation of 30 Aug.): 50
- count of mites fallen down in the hive (reference colony F, check-up 20 Sep. 2004, after second formic acid treatment of 6 Sep.): 10
- count of mites fallen down in the hive (reference colony G, check-up 6 Sep. 2004, after formic acid (60%) evaporation of 30 Aug., amounts above 50 partially counted and extrapolated): 400
- count of mites fallen down in the hive (reference colony G, check-up 20 Sep. 2004, after second formic acid treatment of 6 Sep.): 100
- count of mites fallen down in the hive (reference colony H, check-up 6 Sep. 2004, after formic acid (60%) evaporation of 30 Aug., amounts above 50 partially counted and extrapolated): 500
- count of mites fallen down in the hive (reference colony H, check-up 20 Sep. 2004, after second formic acid treatment of 6 Sep.): 240
- count of mites fallen down in the hive (reference colony I, check-up 6 Sep. 2004, after formic acid (60%) evaporation of 30 Aug.): 50
- count of mites fallen down in the hive (reference colony I, check-up 20 Sep. 2004, after second formic acid treatment of 6 Sep.): 38
- count of mites fallen down in the hive (reference colony J, check-up 6 Sep. 2004, after formic acid (60%) evaporation of 30 Aug., amounts above 50 partially counted and extrapolated): 200
- count of mites fallen down in the hive (reference colony J, check-up 20 Sep. 2004, after second formic acid treatment of 6 Sep.): 44
- count of mites fallen down in the hive (reference colony K, check-up 6 Sep. 2004, after formic acid (60%) evaporation of 30 Aug., amounts above 50 partially counted and extrapolated): 200
- count of mites fallen down in the hive (reference colony K, check-up 20 Sep. 2004, after second formic acid treatment of 6 Sep.): 60
- count of mites fallen down in the hive (reference colony L, check-up 6 Sep. 2004, after formic acid (60%) evaporation of 30 Aug., amounts above 50 partially counted and extrapolated): 200
- count of mites fallen down in the hive (reference colony L, check-up 20 Sep. 2004, after second formic acid treatment of 6 Sep.): 100
